We go through 16 molecules from patent publication US11129835B2, “Methods and compositions for the inhibition of PIN1” (Beth Israel Deaconess Medical Center, Inc., priority 2012, dated 2021).

pIC50: −log10 of the molar value.

In general, pIC50 refers to −log10 of the IC50, conventionally taken in molar units. High values mean a small IC50, low ones a large IC50.

Assay [1] deals with T1, Pin1 (Homo sapiens, UniProt Q13526). Description: Pin1 fluorescence polarization competition assay with Tamra-probe (secondary). The conditions noted are these: for Tamra Secondary Curve Class: Tamra-probe; for Emax: read-out: Tamra Secondary Efficacy. Background: In fluorescence polarisation assays a small probe gives low polarisation when free and higher when bound to something large.
T1 sequence (Q13526 whole entry): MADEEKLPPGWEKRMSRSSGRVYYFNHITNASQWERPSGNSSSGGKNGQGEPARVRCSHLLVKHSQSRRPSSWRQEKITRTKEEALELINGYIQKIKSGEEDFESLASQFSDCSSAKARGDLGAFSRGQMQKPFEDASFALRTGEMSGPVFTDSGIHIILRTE
Method: An assay was developed for the identification of inhibitors of Pin1. […] Candidate compounds were screened in a concentration-titration series (e.g., 57 μM to 0.7 nM).
(§1) Pin1 (0.6 μM) was dispensed into black, solid 1536-well plates (32 rows by 48 columns) at 2 μL/well in Pin1 buffer (10 mM HEPES (pH 7.5), 10 mM NaCl, 0.01% Tween20, 1 mM DTT, and 1% glycerol). Next, 23 nL of compound or DMSO was delivered to each well using a pin tool (tip wash sequence: DMSO, IPA, MeOH, 3 s vacuum dry). Two μL of Pin1-1b-HiFluor488 peptide in buffer (10 mM HEPES (pH 7.5), 10 mM NaCl, 0.01% Tween20, 1 mM DTT, and 1% glycerol, 0.02 μM Pin1-1b-HiFluor488) or DMSO was then dispensed to each well using a pin tool (tip wash sequence: DMSO, IPA, MeOH, 3 s vacuum dry), and plates were incubated at room temperature for 10 min (Table 2). Each plate included controls with no candidate inhibitory compound (32 wells), with unlabeled Pin1-1c titration (3.5 mM to 0.020 mM in a 1:2 dilution series including 2 replicates per concentration; 32 wells), and without Pin1 (64 wells).
(§2) The fluorescence polarization signal of each well was measured on a ViewLux® plate reader using a 480/20 nm excitation filter and 540/25 nm S and P emission filters with a 20 second exposure with 2× binning (Table 2). Percent inhibitory activity was determined from corrected fluorescence polarization values.
(§3) Concentration-response curves were fitted to the signals arising from the resulting fluorescence polarization. The concentration-effect curves were then classified based on curve quality (r^2), response magnitude, and degree of measured activity. Compounds were subsequently categorized based on their curve class.
A further secondary assessment was accomplished by replacing the HiFluor-488-labeled probe with Tamra-probe, a red-shifted fluorophore.

Assay [2] concerns the target T1, Pin1. Description: confirmatory Pin1 fluorescence polarization competition assay (Alexa488 reconfirmed).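 For all read-outs here: Pin1 competition with a HiFluor488-labelled peptide probe, read as fluorescence polarization after 10 min at room temperature.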 To be noted: for Alexa488 Reconfirmed Curve Class: confirmatory retest; for Emax: read-out: Alexa488 Reconfirmed Efficacy.
Method: (§4) The goal of this assay was to identify small-molecule inhibitors of Pin1 using a fluorescence polarization competition assay (FIG. 1). […] Candidate compounds were screened in a concentration-titration series (e.g., 57 μM to 0.7 nM).
as §1, §2, §3
For assay [3], the target named is T1, Pin1. Kind of assay: Pin1 fluorescence polarization competition assay, primary qHTS (HiFluor-488 / Alexa488 probe).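 Note: Pin1 protein with fluorescent peptide probe, compound displacement read by fluorescence polarization, percent inhibition derived from corrected polarization values, concentration-response curves in 1536-well format.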
Method: as §4, §1, §2, §3
Curves showing change polarized fluorescence may be categorized into 5 classes. Class 1 includes complete curves, having 2 asymptotes and an r^2 value of ≥0.9, with an efficacy of either >80% (class 1.1) or ≤80% (class 1.2). Class 1 curves may also be classified as noisy curves when efficacy is >80% and r^2<0.9 (class 1.3) or when efficacy is ≤80% and r^2<0.9 (class 1.4). Class 2 includes incomplete curves having 1 asymptote and an r^2 value of either >0.9 (subclass a) or <0.9 (subclass b), with an efficacy of either >80% (class 2.1) or ≤80% (class 2.2). Class 2 curves may also be classified as noisy curves when efficacy is >80% and r^2<0.9 (class 2.3) or when efficacy is ≤80% and r^2<0.9 (class 2.4). Class 3 includes single point activity curves having 1 asymptote and an efficacy >3 SD from the mean activity of the sample field at the highest tested concentration. […] A fifth class captures any curves not otherwise classified (FIG. 4).
[4] abbreviates: Alexa488 Primary Potency, primary qHTS.
[5] abbreviates: Average HTS Potency, average over Alexa488 primary, Alexa488 reconfirmed and Tamra secondary assays.
Setting [6] is: read-out: Alexa488 Primary Efficacy.

For the molecule `CCCCOc1ccc(C(=O)N/C(=C/c2cccc([N+](=O)[O-])c2)C(=O)O)cc1` [Compound 36], the pIC50 on Pin1 [1] is 4.72; at Pin1 [2], 4.85; on Pin1 [3] (setting [4]) it was 4.96; at Pin1 [3] (setting [5]), 4.82. Also, the “Tamra Secondary Curve Class” value at Pin1 [1] is 2.2 (≤80% (class 2.2)). Moreover, the Emax at Pin1 [1] stood at 76%; on Pin1 [2] it was 62%; at Pin1 [3] (setting [6]) it was 101%; on Pin1 [3] (read-out: Average HTS Efficacy) it was 80%. Further, on Pin1 [2], the “Alexa488 Reconfirmed Curve Class” value was 2.2 (≤80% (class 2.2)).

In the case of `COc1ccccc1Nc1ccc2c(O)cc(S(=O)(=O)O)cc2c1` [Compound 14], the pIC50 at Pin1 [1] is 5.10; on Pin1 [2], 6.00; on Pin1 [3] (setting [4]), 4.68; at Pin1 [3] (setting [5]), 5.00. Also, the Emax at Pin1 [1] was 85%; at Pin1 [2] it was 59%; at Pin1 [3] (setting [6]), 71%; on Pin1 [3] (read-out: Average HTS Efficacy), 72%. The “Alexa488 Reconfirmed Curve Class” value at Pin1 [2] is 1.2 (≤80% (class 1.2)). Further, the “Alexa488 Primary Curve Class” value at Pin1 [3] (primary qHTS) was 1.2 (≤80% (class 1.2)).

On to `O=C(O)c1cc2cccc([N+](=O)[O-])c2[nH]1` [Compound 22], for which the pIC50 on Pin1 [1] is 4.92; at Pin1 [2], 4.68; on Pin1 [3] (setting [5]) it was 4.77. Moreover, the “Tamra Secondary Curve Class” value on Pin1 [1] is on record as 2.2 (≤80% (class 2.2)). The results for the Emax on Pin1 [1], on Pin1 [2] and at Pin1 [3] (read-out: Average HTS Efficacy) were 82%, 93% and 88%, respectively. Besides, the “Alexa488 Reconfirmed Curve Class” value on Pin1 [2] was 2.2 (≤80% (class 2.2)).

For the molecule `CCCCCCCCCCCCN1[C@@H](C(=O)O)c2cc(C(F)(F)F)ccc2S1(=O)=O` [Compound 34], the pIC50 on Pin1 [1] was 4.42; on Pin1 [2] it was 4.62; at Pin1 [3] (setting [4]) it was 4.70; on Pin1 [3] (setting [5]), 4.57. Also, the “Tamra Secondary Curve Class” value on Pin1 [1] is given as 3.0. Further, the Emax at Pin1 [1] turned out to be 103%; at Pin1 [2] it was 104%; on Pin1 [3] (setting [6]), 65%; on Pin1 [3] (read-out: Average HTS Efficacy), 91%.

As to `O=C(O)C1Nc2ccc(Br)cc2C2C=CCC12` (stereo not drawn) [Compound 6], the pIC50 on Pin1 [1] is 4.96; at Pin1 [2] it was 5.00; at Pin1 [3] (setting [4]), 4.66; at Pin1 [3] (setting [5]), 4.85. For the same molecule, the Emax at Pin1 [1] came out at 87%; on Pin1 [2], 85%; at Pin1 [3] (setting [6]), 42%; on Pin1 [3] (read-out: Average HTS Efficacy) it was 72%.

As to `COc1cc(C(c2c(C(=O)O)[nH]c3ccccc23)c2c(C(=O)O)[nH]c3ccccc23)ccc1OCc1ccccc1` [Compound 47], the pIC50 is 4.68 on Pin1 [1], 4.72 on Pin1 [2], 4.10 on Pin1 [3] (setting [4]) and 4.40 on Pin1 [3] (setting [5]). Also, the Emax turned out to be 91% on Pin1 [1], 84% at Pin1 [2], 26% on Pin1 [3] (setting [6]) and 67% at Pin1 [3] (read-out: Average HTS Efficacy). Also, the “Alexa488 Reconfirmed Curve Class” value on Pin1 [2] is reported as 2.2 (≤80% (class 2.2)). Moreover, on Pin1 [3] (primary qHTS), the “Alexa488 Primary Curve Class” value is on record as 1.2 (≤80% (class 1.2)).

On to `Cc1ccc(N(Cc2cc(=O)[nH]c3ccccc23)C(=O)CCl)cc1` [Compound 9], for which the pIC50 is 5.92 at Pin1 [1], 5.70 on Pin1 [2], 5.00 on Pin1 [3] (setting [4]) and 5.40 on Pin1 [3] (setting [5]). In addition, the Emax on Pin1 [1] was 97%; on Pin1 [2], 111%; at Pin1 [3] (setting [6]), 78%; on Pin1 [3] (read-out: Average HTS Efficacy) it was 95%.

Regarding `COC(=O)COc1ccc(C2Nc3c(Cl)ccc(C(=O)O)c3C3C=CCC32)cc1` (stereo not drawn) [Compound 42], the negative-log IC50 (pIC50) on Pin1 [1] is 4.62; on Pin1 [2], 4.57; at Pin1 [3] (setting [4]), 4.72; on Pin1 [3] (setting [5]), 4.64. Besides, the “Tamra Secondary Curve Class” value at Pin1 [1] is 2.2 (≤80% (class 2.2)). Further, the Emax was 73% on Pin1 [1], 82% on Pin1 [2], 73% at Pin1 [3] (setting [6]) and 76% on Pin1 [3] (read-out: Average HTS Efficacy). Also, the “Alexa488 Reconfirmed Curve Class” value at Pin1 [2] was 2.2 (≤80% (class 2.2)). Further, the “Alexa488 Primary Curve Class” value on Pin1 [3] (primary qHTS) is listed as 1.2 (≤80% (class 1.2)).

As for `O=S(=O)(O)c1ccc(O)c2cc(Nc3ccccc3)ccc12` [Compound 13], the pIC50 at Pin1 [1] is 5.52; on Pin1 [2], 5.70; on Pin1 [3] (setting [4]), 5.05; at Pin1 [3] (setting [5]) it was 5.40. Besides, the Emax on Pin1 [1] was 88%; at Pin1 [2], 89%; on Pin1 [3] (setting [6]), 89%; at Pin1 [3] (read-out: Average HTS Efficacy), 89%.

In the case of `O=S(=O)(Nc1nc(-c2sccc2Cl)cs1)c1cc(Cl)ccc1Cl` [Compound 24], the negative-log IC50 (pIC50) at Pin1 [1] is 4.92; on Pin1 [2], 4.85; at Pin1 [3] (setting [4]) it was 4.37; at Pin1 [3] (setting [5]), 4.64. Further, the Emax at Pin1 [1] worked out at 100%; at Pin1 [2], 101%; on Pin1 [3] (setting [6]) it was 76%; at Pin1 [3] (read-out: Average HTS Efficacy), 92%. Besides, the “Alexa488 Reconfirmed Curve Class” value on Pin1 [2] is listed as 1.2 (≤80% (class 1.2)). On Pin1 [3] (primary qHTS), the “Alexa488 Primary Curve Class” value is recorded as 1.2 (≤80% (class 1.2)).

With `O=C(O)C1Nc2c(C(F)(F)F)ccc(Cl)c2C2C=CCC12` (stereo not drawn) [Compound 8], the negative-log IC50 (pIC50) at Pin1 [1] is 4.74; on Pin1 [3] (setting [4]), 4.35; on Pin1 [3] (setting [5]), 4.51. The “Tamra Secondary Curve Class” value on Pin1 [1] is 2.2 (≤80% (class 2.2)). In addition, the Emax at Pin1 [1] was determined as 52%; at Pin1 [2] it was 103%; at Pin1 [3] (setting [6]) it was 67%; at Pin1 [3] (read-out: Average HTS Efficacy), 74%. The “Alexa488 Reconfirmed Curve Class” value on Pin1 [2] is recorded as 2.2 (≤80% (class 2.2)). In addition, on Pin1 [3] (primary qHTS), the “Alexa488 Primary Curve Class” value is reported as 2.2 (≤80% (class 2.2)).

For the molecule `Cc1ccc(C)n1-c1sccc1C(=O)O` [Compound 18], the negative-log IC50 (pIC50) at Pin1 [1] was 5.70; on Pin1 [2], 5.70; on Pin1 [3] (setting [4]) it was 4.17; at Pin1 [3] (setting [5]) it was 4.62. Also, the Emax amounted to 95% at Pin1 [1], 91% on Pin1 [2], 44% on Pin1 [3] (setting [6]) and 77% on Pin1 [3] (read-out: Average HTS Efficacy).

In the case of `O=C(O)Cc1c[nH]c2cccc(O)c12` [Compound 23], the pIC50 on Pin1 [1] was 5.10; on Pin1 [2] it was 4.82; on Pin1 [3] (setting [4]) it was 4.12; at Pin1 [3] (setting [5]) it was 4.48. Further, the “Tamra Secondary Curve Class” value at Pin1 [1] is reported as 2.2 (≤80% (class 2.2)). Further, the Emax at Pin1 [1] turned out to be 77%; at Pin1 [2], 92%; at Pin1 [3] (setting [6]) it was 63%; at Pin1 [3] (read-out: Average HTS Efficacy), 77%.

As to `CCCCCC(=O)Nc1cc(S(=O)(=O)O)cc2cc(S(=O)(=O)O)cc(O)c12` [Compound 16], the pIC50 was 5.70 on Pin1 [1], 5.70 on Pin1 [2], 4.12 on Pin1 [3] (setting [4]) and 4.57 at Pin1 [3] (setting [5]). Further, the Emax on Pin1 [1] stood at 84%; on Pin1 [2], 93%; at Pin1 [3] (setting [6]) it was 54%; at Pin1 [3] (read-out: Average HTS Efficacy) it was 77%.

On to `Cc1ccc(C(=O)c2no[n+]([O-])c2C(=O)c2ccc(C)cc2)cc1` [Compound 29], for which the pIC50 at Pin1 [1] was 7.00; at Pin1 [2], 7.00; on Pin1 [3] (setting [4]), 5.52; at Pin1 [3] (setting [5]) it was 6.05. Besides, the Emax at Pin1 [1] came out at 82%; at Pin1 [2], 90%; at Pin1 [3] (setting [6]), 83%; on Pin1 [3] (read-out: Average HTS Efficacy), 85%.

For the molecule `O=C1OC(/C(=C\Nc2cc(Cl)ccc2O)[N+](=O)[O-])c2ccccc21` (stereo not drawn) [Compound 12], the pIC50 at Pin1 [1] is 5.96; on Pin1 [2], 5.92; on Pin1 [3] (setting [4]), 4.82; on Pin1 [3] (setting [5]), 5.22. Further, the Emax on Pin1 [1] stood at 92%; on Pin1 [2] it was 93%; at Pin1 [3] (setting [6]), 78%; at Pin1 [3] (read-out: Average HTS Efficacy), 88%. In addition, the “Alexa488 Primary Curve Class” value on Pin1 [3] (primary qHTS) is reported as 1.2 (≤80% (class 1.2)).
